Data on two compounds can be found in patent US10828305B2 (SHANGHAI PHARMACEUTICALS HOLDING CO., LTD., priority 2016, dated 2020).

The target of one series is T1, CYP2D6 (Homo sapiens, UniProt P10635).
T1 construct: from tissue; host or cells: human liver microsomes
The experiment in a line: Direct inhibition of CYP2D6, human liver microsome. The class given is in vitro ADME. Particulars: probe dextromethorphan, read-out: IC50 2D6 (Dextromethorphan). The procedure:
(§1) Research on Direct Inhibition of CYP3A4, CYP2D6, CYP2C9, CYP2C19, CYP1A2
(§2) 100 μL human liver microsome (with final concentration of 0.2 mg/mL) was used for direct inhibition under warm incubation, the positive control system contained NADPH (with final concentration of 1 mmol/L), a mixture of positive inhibitors (ketoconazole 0.01 to 10 μmol/L, quinidine 0.01 to 10 μmol/L, sulfaphenazole 0.1 to 100 μmol/L, tranylcypromine 1 to 1000 μmot/L, α-naphthoflavone 0.01 to 10 μmol/L), and a substrate mixture (with final concentration of midazolam 10 μmol/L, testosterone 100 μmol/L, dextromethorphan 10 μmol/L, diclofenac 20 μmol/L, S-mephenytoin 50 μmol/L, phenacetin 100 μmol/L), and the reaction was terminated after incubation for 20 min. The positive inhibitor was replaced with 0.1 to 100 μmol/L test compound in the test compound group. The reaction was terminated with acetonitrile containing 0.11 μg/mL internal standard tinidazole (1:3), vortexed for 10 min, centrifuged at 6000×g for 10 min, 50 μL supernatant was taken and put into a 96-well plate for injection.
(§3) In this experiment, IC50 of inhibition of the compound on the enzyme was calculated by measuring relative production of the probe metabolite. The activity of CYP3A4 was simultaneously characterized by two probes of midazolam and testosterone.
For orientation: Liver microsomes are a subcellular fraction often used to study metabolism.

The target of another series is T2, CYP1A2 (Homo sapiens, UniProt P05177).
T2 construct: from tissue; host or cells: human liver microsomes
T2 sequence (P05177 1-516): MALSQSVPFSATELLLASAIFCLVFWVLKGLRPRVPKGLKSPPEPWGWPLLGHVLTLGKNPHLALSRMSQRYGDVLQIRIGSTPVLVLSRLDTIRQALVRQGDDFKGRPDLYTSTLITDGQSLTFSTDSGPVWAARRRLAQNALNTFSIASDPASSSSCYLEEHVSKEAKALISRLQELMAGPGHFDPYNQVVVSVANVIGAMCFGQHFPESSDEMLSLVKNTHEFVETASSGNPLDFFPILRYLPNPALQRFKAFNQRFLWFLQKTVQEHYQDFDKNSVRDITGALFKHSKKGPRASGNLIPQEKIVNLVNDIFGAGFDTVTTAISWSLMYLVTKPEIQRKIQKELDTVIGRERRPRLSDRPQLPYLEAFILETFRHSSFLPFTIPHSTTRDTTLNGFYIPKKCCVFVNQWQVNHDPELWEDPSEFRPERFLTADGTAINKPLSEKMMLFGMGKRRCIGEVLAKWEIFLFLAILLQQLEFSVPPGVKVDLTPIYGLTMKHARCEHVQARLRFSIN
The series is described as follows: Direct inhibition of CYP1A2, human liver microsome. Particulars: probe phenacetin, read-out: IC50 1A2 (Phenacetin). The class given is in vitro ADME. Here is the method:
as §1, §2, §3

The target of the next series is T3, CYP2C19 (Homo sapiens, UniProt P33261).
T3 construct: from tissue; host or cells: human liver microsomes
T3 sequence (P33261 whole entry): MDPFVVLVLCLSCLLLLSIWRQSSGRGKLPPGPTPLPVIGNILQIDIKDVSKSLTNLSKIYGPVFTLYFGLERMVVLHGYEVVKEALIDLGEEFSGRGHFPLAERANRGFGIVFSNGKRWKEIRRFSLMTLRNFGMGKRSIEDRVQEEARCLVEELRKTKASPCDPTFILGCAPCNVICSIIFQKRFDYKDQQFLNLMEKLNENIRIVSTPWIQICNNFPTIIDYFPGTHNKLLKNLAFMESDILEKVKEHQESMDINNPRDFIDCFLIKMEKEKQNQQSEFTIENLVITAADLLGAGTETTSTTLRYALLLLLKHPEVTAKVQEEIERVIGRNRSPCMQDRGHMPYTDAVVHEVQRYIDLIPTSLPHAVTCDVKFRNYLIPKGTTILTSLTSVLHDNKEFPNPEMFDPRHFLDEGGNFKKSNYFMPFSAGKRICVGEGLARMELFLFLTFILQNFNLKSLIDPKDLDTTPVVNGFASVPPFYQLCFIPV
The series is described as follows: Direct inhibition of CYP2C19, human liver microsome. The class given is in vitro ADME. As to conditions: probe mephenytoin, read-out: IC50 2C19 (Mephenytoin). The procedure: as §1, §2, §3

For the next series, the target named is T4, CYP2C8 (Homo sapiens, UniProt P10632).
T4 construct: from tissue; host or cells: human liver microsomes
T4 sequence (P10632 1-490): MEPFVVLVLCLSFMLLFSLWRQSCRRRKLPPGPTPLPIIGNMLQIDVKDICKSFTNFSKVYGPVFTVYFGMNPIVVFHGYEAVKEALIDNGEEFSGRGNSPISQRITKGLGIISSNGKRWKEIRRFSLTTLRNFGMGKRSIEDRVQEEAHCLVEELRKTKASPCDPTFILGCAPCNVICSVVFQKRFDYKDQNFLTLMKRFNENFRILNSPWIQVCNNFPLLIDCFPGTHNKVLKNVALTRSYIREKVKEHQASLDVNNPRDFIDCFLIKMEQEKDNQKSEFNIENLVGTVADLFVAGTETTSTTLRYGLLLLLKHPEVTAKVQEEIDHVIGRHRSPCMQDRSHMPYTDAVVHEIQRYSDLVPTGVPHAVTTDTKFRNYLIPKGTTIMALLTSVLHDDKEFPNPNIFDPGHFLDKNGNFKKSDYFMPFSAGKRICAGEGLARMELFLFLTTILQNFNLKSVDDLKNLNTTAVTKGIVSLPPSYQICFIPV
The series is described as follows: Direct inhibition of CYP2C8, human liver microsome. Particulars: probe paclitaxel, read-out: IC50 2C8 (Paclitaxel). The class given is in vitro ADME. Here is the method:
Research on Direct Inhibition of CYP2B6 and CYP2C8
100 μL human liver microsome (with final concentration of 0.2 mg/mL) was used for direct inhibition under warm incubation. The positive control system contained NADPH (with final concentration of 1 mmol/L), a mixture of positive inhibitors (ketoconazole 0.05 to 50 μmol/L, montelukast sodium 0.001 to 1 μmol/L), and a substrate mixture (with final concentration of amfepramone 50 μmol/L and paclitaxel 5 μmol/L), and the reaction was terminated after incubation for 20 min. The positive inhibitor was replaced with 0.1 to 100 μmol/L test compound in the test compound group. The reaction was terminated with acetonitrile containing […] internal standard tinidazole (1:3), vortexed for 10 min, centrifuged at 6000×g for 10 min, and 50 μL supernatant was taken and put into a 96-well plate for injection.
as §3

A short description of series [1]: In vivo pharmacokinetics study in mice. Particulars: male, ICR, mouse, plasma, po, iv 3 mg/kg, intragastric 10 mg/kg, read-out: Absolute bioavailability F. The procedure: In Vivo Pharmacokinetics Study in Rats and Mice
24 male ICR mices, with weight of 18 to 22 g. The mice were fasted for 12 to 16 hours before the experiment, without restricting drinking water. 24 mice were divided into 2 groups, 12 mice for each group. The first group was intravenously administrated with test compound (10 mL/kg, 0.3 mg/mL) at a dose of 3 mg/kg, 0.4 mL blood sample was taken from venous plexus of the fundus of the eye into a pre-heparinized centrifuge tube (sodium heparin solution 10 μL/tube) before administration and 2, 5, 15, 30, 60, 90, 120, 240, 360, 480, 720, 1440 min after administration, respectively. The second group was dosed with compound (20 mL/kg, 0.5 mg/mL) by intragastric administration at a dose of 10 mg/kg, 0.4 mL blood sample was taken from venous plexus of the fundus of the eye into a pre-heparinized centrifuge tube (sodium heparin solution 10 μL/tube) before administration and 5, 15, 30, 60, 90, 120, 240, 360, 480, 720, and 1440 min after administration, respectively. 2 to 3 time points were taken for each mouse. […]
Taking 50 μL plasma sample of rat or mouse, adding […] acetonitrile containing internal standard (propranolol, 2.5 ng/ml) to precipitate protein. Vortexing for 10 min, centrifuging at 6000 g for 10 min, the supernatant was taken and diluted with mobile phase in a 96-well plate, the drug concentration in plasma was measured by UPLC/MS-MS. […]

T1 sequence (P10635 whole entry): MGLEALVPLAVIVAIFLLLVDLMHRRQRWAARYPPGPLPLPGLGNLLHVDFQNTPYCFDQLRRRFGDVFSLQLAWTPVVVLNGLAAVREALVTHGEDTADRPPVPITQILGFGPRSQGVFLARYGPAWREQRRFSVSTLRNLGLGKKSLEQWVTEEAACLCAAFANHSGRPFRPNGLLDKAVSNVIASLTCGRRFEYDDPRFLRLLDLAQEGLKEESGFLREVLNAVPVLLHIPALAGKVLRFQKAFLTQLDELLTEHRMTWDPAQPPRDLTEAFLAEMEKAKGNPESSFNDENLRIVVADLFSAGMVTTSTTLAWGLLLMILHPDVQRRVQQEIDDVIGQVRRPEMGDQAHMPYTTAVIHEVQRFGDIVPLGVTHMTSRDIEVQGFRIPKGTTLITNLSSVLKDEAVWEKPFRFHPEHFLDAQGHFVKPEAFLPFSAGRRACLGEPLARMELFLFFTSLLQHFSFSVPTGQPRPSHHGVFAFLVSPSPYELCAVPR

On to `Cc1cc(Nc2ncnc3ccc(NC4=NC(C)(C)CO4)cc23)ccc1Oc1cc2nncn2cn1` [Embodiment 4, N^4-(4-([1,2,4]triazolo[4,3-c]pyrimidin-7-yloxy)-3-methylphenyl)-N^6-(4,4-dimethyl-4,5-dihydrooxazol-2-yl)quinazoline-4,6-diamine], for which the IC50 (commonly the concentration at which inhibition is half-maximal) at CYP2D6 was 12 µM; at CYP1A2, 34 µM; on CYP2C19, 53 µM; at CYP2C8 it was 15 µM. In addition, the bioavailability (commonly dose-corrected exposure relative to a reference, in per cent) in series [1] stood at 96.2%.

As for `Cc1cc(Nc2ncnc3ccc(NC4=NC(C)(C)CO4)cc23)ccc1Oc1ccn2ncnc2c1` [ARRY-380, reference compound], the half-inhibitory concentration (IC50) at CYP2D6 stood at 3 µM; on CYP1A2 it was 94 µM; at CYP2C19, 35 µM; on CYP2C8, 3 µM. For the same compound, the bioavailability in series [1] is 61%.
